Data taken from patent US9566265B2, “Carbazole compounds and therapeutic uses of the compounds” (Incuron, LLC, priority 2008, dated 2017).
Where two headings read alike, the source gives them in different places.

Experiments:
γH2AX = γH2AX staining (Table I); assay type: cell-based
ATM/ATR = ATM/ATR activation (Table I); assay type: cell-based
Chk1/2 = Chk1/2 phosphorylation (Table I); assay type: cell-based
Topo II [1] = assay: Topo II inhibition in vitro (Table I); assay type: biochemical
p53 = p53 activation assay, p53 responsive luciferase reporter cell line; assay type: cell-based, human; conditions: Homo sapiens
Procedure: The potency of a present carbazole compound is determined by measuring an ability of the compound to inhibit NF-κB activity or to activate p53. […] Theoretically, such assays of the dose-response effect of activator compounds can be described as a sigmoidal curve expressing a degree of activation as a function of concentration. The curve also theoretically passes through a point at which the concentration is sufficient to increase activity to a level that is 50% that of the difference between a baseline and the maximal activity in the assay. […] Determination of an EC50 value is made using conventional biochemical (acellular) assay techniques or cell-based assay techniques.
The potency of a carbazole compound is determined by measuring an ability of the compound to activate p53.
The p53 activation assay for determination of the EC50 value was performed as follows:
HT1080-L (human fibrosarcoma cells with ConALuc reporter)
RCC45ConALuc (human renal cell carcinoma cell line with ConALuc reporter)
1. Two types of standard cells were used, either HT1080-L or RCC45ConALuc cells. Both cell lines stably express a p53 responsive luciferase reporter construct.
2. HT1080-L cells were grown in DMEM medium containing 10% FBS. RCC45ConALuc cells were grown in RPMI medium containing 10% FBS (Pen/Strep can be added to a final concentration of 1%, if desired). Both cell lines were grown in a humidified incubator at 37° C. with 5% CO2. For normal culturing, both cell lines were split using 1× trypsin-EDTA at a ratio of 1:20 for HT1080-L and 1:5 for RCC45ConALuc cells every 3-4 days (when cells are 80-90% confluent).
3. A day before the experiment, the cells are trypsinized for about 5 minutes in 1× tripsin/EDTA solution in 37° C. incubator and plated in 96 well plates. HT1080-L cells were seeded at a density of 1×10^4/well in standard DMEM medium in a volume of 50 μl. RCC45ConALuc were seeded at a density of 2×10^4/well in the volume of 50 uL in standard RPMI medium.
4. The next day, various carbazole compounds were prepared by dilution of stock solutions in standard DMEM medium such that the cells were treated with the final chemical concentrations in Table 1 below. Stock solutions were made up in DMSO. Typically, chemicals were made up as 20 mM stock solutions.
5. Each tested compound used two rows of a 96-well plate, thus four compounds (e.g., W, X, Y, Z) were tested in one plate simultaneously. In addition to test compounds, each plate included positive and negative controls. As positive control, 9aa was used at a dose of 3 μM. As a negative control, DMSO was used in final concentration 0.1%.
1. Dilutions of chemicals added to the plate were made up as 2× concentrations in standard DMEM and added to corresponding well in a volume of 50 μl.
2. Chemicals were diluted in standard DMEM by two time serial dilutions starting from 40 μM (2× of highest concentration, e.g., 20 μM). For one cell line, the minimum volume was 125 μL of 2× working solution of chemical of each concentration in standard DMEM.
4. Sixteen hours following compound addition, all wells with the highest concentrations of compounds are checked microscopically for the presence of toxic effect, because death of cells caused by compounds may not allow detecting luciferase activity. If cytotoxocity is evident, other doses of the same compounds were checked for the presence of toxicity. The lowest dose causing toxic effect was recorded.
5. After microscopic examination, 15 μl of Bright Glo luciferase assay system were added to each well and after 5 min incubation at RT, the plates were read on a 96 well plate luminometer with a measurement time of 0.1 sec. A shaking step was included before measurement.
6. The folds of luciferase activation for each concentration of each chemical were calculated by dividing the detected luciferase activity at each chemical concentration by the average of the luciferase activity for the DMSO control on the same plate.

Bloodstream T. brucei = assay: T. brucei bloodstream form in vitro killing; assay type: cell-based, Trypanosoma brucei
Procedure: Preliminary T. brucei inactivation experiments were performed in vitro. The life cycle of T. brucei involves a “procyclic” developmental stage in a tsetse fly, and a “bloodstream” form in humans. All studies were performed with the bloodstream stage of the parasite, because it is the disease-causing developmental stage.
Suramin, a conventional anti-HAT drug, was used as a positive control.
Bloodstream T. brucei was seeded (3×10^3 cells/mL) in 24-well (500 uL of the media per well) plate. […] Control cultures received equal volumes of DMSO.

Bacillus subtilis = assay: antibacterial cytotoxicity assay, gram(+) bacteria (OD600); assay type: cell-based; conditions: B. subtilis, 48 hours, over a range of potencies; FIG. 13B
Procedure: In vitro test to evaluate the effect of carbazole compounds on gram(-) and gram(+) bacteria. Two days prior to the start of the cytotoxicity assay, inoculate DH5-α and B. subtilis into 1 ml of corresponding media from glycerol stocks. Allow to grow during the course of the day at 37° C. with shaking. Streak each bacteria on the appropriate agar plates using a sterile inoculation loop and allow to grow overnight at 37° C. in the bacteria incubator. Using a sterile inoculation loop, pick a single colony of bacteria and inoculate 5 ml of the corresponding media in a 14 ml snap cap tube. Grow overnight ( 16 h) at 37° C. with shaking. […] Dilute 5 ml cultures of DH5-α and B. subtilis to an OD600 nm of 0.002, which corresponds to about 2×10^6 cells/ml in a volume sufficient for the experiment (dependent on the number of plates). Plate out 50 μl into each well of X 96-well plates (X=# plates needed for a given experiment). […] Chemicals for testing are prepared by dilution of stock solutions in LB Broth or Nutrient Broth for DH5-α and B. subtilis studies, respectively. Cells are treated with the final chemical concentrations presented in the scheme below (Table 2). Stock solutions are made up in DMSO. […] However, this concentration is dependent on the solubility of a given chemical and actual stock concentrations must be noted at time of experiment. Each library chemical to be tested requires 2 rows of a 96-well plate, thus 4 chemicals ([…]) can be tested in one plate simultaneously. In addition to test chemicals, each plate should include positive and negative controls. As positive control, ampicillin is used at 100 μg/ml. […] Dilutions of chemicals to be added to the plate are made up as 2× concentrations in appropriate bacteria media and added to corresponding wells in a volume of 50 μl. […] This process is repeated until all 10 2× doses are prepared. […] Following the addition of carbazole compounds to 96-well plates containing bacteria, plates are transferred to the 37° C. bacteria incubator for 48 hours. After the incubation, the OD600 mm for each well of the 96-well plates will be measured. […] The % DMSO control is plotted vs compound concentration to generate sigmoid shaped curves. After three runs are complete, the raw data for all three runs is used for IC50 calculations.

HB 101 E. coli = assay: antibacterial cytotoxicity assay, gram(−) bacteria (OD600); assay type: cell-based; conditions: 48 hours, over a range of potencies, FIG. 13A
[2] = test system: HCT-116, DLD1, Caki1 and MDA-MB-231 tumors; assay: various human tumour xenografts sc; assay type: in vivo, nude or SCID mice; conditions: tumor cells inoculated as a cell suspension
Procedure: (§1) In this study, the antitumor effect and toxicity of the three carbazoles against HCT-8 and HT29 colon cancer tumors were compared with treatment beginning when the tumor size reached 150-200 mg (about 7 days after tumor transplantation).

[3] = test system: human HCT-8 ileocecal adenocarcinoma xenografts
Procedure: as §1
(§2) Eight to twelve-week-old female athymic nude mice (nu/nu, body weight 22-25 g) were obtained from Harlan Sprague Dawley Inc. (Indianapolis, Ind.) and maintained at five mice/cage with water and food ad libitum according to an institutionally approved animal protocol.
(§3) Human ileocecal adenocarcinoma HCT-8 and colon adenocarcinoma HT-29 xenografts were used. The xenografts were initially established by injecting s.c 10^6 cultured cells and tumors were passed several generations by transplanting about 50 mg non-necrotic tumor (2-3 pieces) via a trocar from the passage tumors when the tumors reach to 1-1.5 g.
(§4) Treatment was initiated 7 days after tumor transplantation when the tumors reached 150-200 mg. The mice in the control group received the vehicle (0.2% hydroxypropylmethylcellulose) at 200 μl per 20 g mouse body weight (same as the treatment groups). Five mice were used for each experimental group with 10 tumors (1 tumor each in the left and right side flanks).
(§5) Two axes (mm) of tumor (L, longest axis; W, shortest axis) were measured with the aid of a Vernier caliper. Tumor weight (mg) was estimated using a formula: tumor weight=½ (L×W2). Tumor measurements were taken daily at the same time as drug treatment and 3-4 times a week of post therapy.
(§6) The kinetics of drug-induced toxicities (body weight loss, diarrhea, and lethality) were determined daily for the first 10 days after treatment and every two days thereafter.
(§7) Antitumor activity was assessed by maximum tumor growth inhibition (MTRI) which is the mean tumor weight of treated group (MTWTG) compared with untreated control group (MTWCG) at the same time point (MTRI=MTWTG−MTWCG)÷MTWCG×100%). The tumor doubling time (TDT) was defined as the mean time for the tumor to reach twice its initial weight. Tumor response was expressed as partial tumor response (PR) when tumor weight was reduced at least 50% of the initial tumor size and complete tumor response (CR) was defined as the inability to detect tumor upon palpation at the initial site of tumor appearance.

[4] = test system: human HT-29 colon adenocarcinoma xenografts
Procedure: as §1, §2, §3, §4, §5, §6, §7

in vivo = conditions: nude, mouse, po
Procedure: Drug doses and schedule. […] Treatment was initiated 7 days after tumor transplantation when the tumors reached 150-200 mg. The mice in the control group received the vehicle (0.2% hydroxypropylmethylcellulose) at 200 μl per 20 g mouse body weight (same as the treatment groups). Five mice were used for each experimental group with 10 tumors (1 tumor each in the left and right side flanks).
Maximum Tolerated Dose (MTD) and toxicity evaluation. […] The kinetics of drug-induced toxicities (body weight loss, diarrhea, and lethality) were determined daily for the first 10 days after treatment and every two days thereafter.

[5] = test system: Caki1 human renal cell carcinoma cells; assay: Caki1 renal cell carcinoma xenograft efficacy test
Procedure: In an efficacy test using these three compounds, athymic nude mice were inoculated subcutaneously with a suspension of Caki1 human renal cell carcinoma cells into both rear flanks. When at least one tumor in a mouse reached 20-50 mm^3, treatment was commenced. […] As a positive control, one group was treated with 40 mg/kg Sunitinib, an approved drug for the treatment of renal cell carcinoma. Treatment was given for 4 weeks on a 5 day on/2 day off schedule. After treatment was completed, mice were monitored for an additional 4 weeks to determine how quickly tumor growth returned to normal.

bacteria = assay: antibacterial cytotoxicity assay, comparison with ampicillin control; assay type: cell-based
Procedure: In particular, the effect of carbazole compounds of the present invention on gram positive (Bacillus subtilis) and gram negative (DH5-α) bacteria was determined by the following procedure, and is summarized in FIGS. 13A and 13B.
Each library chemical to be tested requires 2 rows of a 96-well plate, thus 4 chemicals (e.g. W, X, Y, Z) can be tested in one plate simultaneously. In addition to test chemicals, each plate should include positive and negative controls. As positive control, ampicillin is used at 100 μg/ml. As a negative control, DMSO is used in an amount equal to the highest volume of test compound used (˜0.25% DMSO for 50 μM).
Besides a positive control added in one concentration on each plate, the positive control of ampicillin is added to each assay run in a full concentration range (3 fold dilutions) to ensure proper and robust assay performance (estimated by comparison of dose response curves among runs).
The average OD600 nm of the test compound solutions are compared to that of the DMSO control by dividing the average OD600 nm of the test solution by that of the DMSO control and multiplying by 100 to produce the % DMSO control (i.e. % cytotoxicity). The % DMSO control is plotted vs compound concentration to generate sigmoid shaped curves. After three runs are complete, the raw data for all three runs is used for IC50 calculations.

[6] = test system: Plasmodium falciparum (strain D10); assay: Plasmodium falciparum in vitro culture, infected erythrocytes; assay type: cell-based; conditions: tested at 29, 57, 143 nM or 143 nM only; FIG. 12
Procedure: In particular, the effect of carbazole compounds on the malaria parasite was tested by culturing Plasmodium falciparum (strain D10) in vitro in the presence or absence of test compounds.
In each experiment, 1000 erythrocytes were assessed microscopically to determine the number of infected cells.

Topo II [7] = assay: Topo II inhibition in cells (Table I); assay type: cell-based
[8] = 16 h, HT1080-L or RCC45ConALuc reporter cells, 16 h, read-out: EC50 value (p53 activation)
[9] = p.o. at MTD, 5 days on/2 days off per week, Example 15 5, Example 7 30, Example 13 25 mg/kg/d

## CCN(CC)CCn1c2ccc3c(c2c2c4c(ccc21)C(=O)CC4)CCC3=O.Cl [Example 3, 6-[2-(Diethylamino)ethyl]-10,11-dihydro-1H-dicyclopenta[c,g]carbazole-3,9(2H,6H)-dione hydrochloride]
γH2AX
  γH2AX staining: no
ATM/ATR
  ATM/ATR activation: no
Chk1/2
  Chk1/2 phospho: no
Topo II [1]
  Topo II inhibition in vitro: ligation
Ames test
  Ames test: negative

## CCCNCCCn1c2ccc(C(C)=O)cc2c2c3c(ccc21)C(=O)CC3 [Example 13]
p53; [8]
  EC50: 0.22 µM
Bloodstream T. brucei; 48 hrs, up to 200 nM Example 7, 20 nM Example 13, 3 nM Example 15
  elimination of parasites: completely eliminated T. brucei
Bloodstream T. brucei; Trypanosoma brucei, read-out: IC50 (concentration that killed 50% of the parasites), bloodstream stage, 48 hrs of culture
  IC50: 6 to 11 nM
Bacillus subtilis
  antibacterial effect: antibacterial effect
HB 101 E. coli
  antibacterial effect: antibacterial effect
[2]
  antitumor efficacy: antitumor efficacy
[3]; mouse, in vivo
  Toxicity (%) MWL: 8.5 ± 2.9%
[3]; [9]
  Antitumor Activity MTGI (%): 35.7 ± 20.0%
[3]; same
  Toxicity (%) lethality: 0%
[3]; same, complete tumor response
  CR (%): 0%
[3]; same, partial tumor response
  PR (%): 0%
[3]; same, tumor doubling time
  Antitumor Activity TDT: 5.6 ± 1.2 days
[3]; text b677
  delay of tumor growth compared to the vehicle control (double time 4.8 days): 17%
[4]
  delay of tumor growth (control double time 7.8 days): 50%
  inhibitory rate / tumor growth inhibition: 48%
[4]; [9]
  Antitumor Activity MTGI (%): 47.6 ± 6.7%
[4]; same
  Toxicity (%) lethality: 0%
[4]; same, complete tumor response
  CR (%): 0%
[4]; same, maximum weight loss of pretreatment body weight
  Toxicity (%) MWL: 4.4 ± 2.2%
[4]; same, partial tumor response
  PR (%): 0%
[4]; same, tumor doubling time
  Antitumor Activity TDT: 11.7 ± 1.2 days
In vivo
  MTD at 4 weeks: 25 mg/kg/day
[5]; Day 24 (end of treatment), oral gavage 5 day on/2 day off, Example 7 30, Example 15 5, Example 13 25, Sunitinib 40 mg/kg
  tumor growth inhibition compared to the vehicle control: 62%
[5]; oral, 4 weeks 5 day on/2 day off
  side effects: severest side effects

## CC(C)NCCn1c2ccc3c(c2c2c4c(ccc21)C(=O)CC4)CCC3=O [Example 17]
p53; [8]
  EC50: 0.04 µM
Bacillus subtilis
  antibacterial effect: antibacterial effect
HB 101 E. coli
  antibacterial effect: antibacterial effect
bacteria
  effectiveness against bacteria compared with the ampicillin control: more effective

## CCNCCCn1c2ccc3c(c2c2c4c(ccc21)C(=O)CC4)CCC3=O.Cl [Example 18]
p53; [8]
  EC50: 0.09 µM
p53; Table 3, test compounds of the malaria experiment, read-out: EC50, μM (p53 activation assay)
  EC50: 0.09 µM
[6]
  anti-malarial activity, parasitemia reduction: anti-malarial activity comparable to quinacrine
Bacillus subtilis
  antibacterial effect: antibacterial effect
HB 101 E. coli
  antibacterial effect: antibacterial effect

## COc1cccc2c1C(=O)c1c(O)c3c(c(O)c1C2=O)C[C@@](O)(C(=O)CO)C[C@@H]3O[C@H]1C[C@H](N)[C@H](O)[C@H](C)O1 [doxorubicin]
γH2AX
  γH2AX staining: yes
ATM/ATR
  ATM/ATR activation: yes
Chk1/2
  Chk1/2 phospho: yes
Topo II [7]
  Topo II inhibition in cells: yes
Topo II [1]
  Topo II inhibition in vitro: relegation
Ames test
  Ames test: negative
